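Results reflect a 48-hour exposure of cells in 96-well plates to compound at five concentrations. GI50 = concentration required for 50% inhibition of growth.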 Active and inactive are the calls of the source. Rule as the data show it: active = GI50 up to about 1.1 µM and inactive = higher.
How the values were obtained:
Assay in all cases: NCI tumour cell line growth inhibition, 48 h
786-0 = system: 786-0
A498 = system: A498
A549 = system: A549
ACHN = system: ACHN
CAKI-1 = system: CAKI-1
CCRF-CEM = system: CCRF-CEM
COLO 205 = system: COLO 205
DLD-1 = system: DLD-1
DMS-114 = system: DMS-114
DMS-273 = system: DMS-273
EKVX = system: EKVX
HCC 2998 = system: HCC 2998
HCT-116 = system: HCT-116
HCT-15 = system: HCT-15
HL-60 = system: HL-60
HOP-18 = system: HOP-18
HOP-62 = system: HOP-62
HT-29 = system: HT-29
IGROV-1 = system: IGROV-1
K562 = system: K562
KM-20L2 = system: KM-20L2
KM12 = system: KM12
LOX IMVI = system: LOX IMVI
LXFL 529 = system: LXFL 529
M14 = system: M14
M19-MEL = system: M19-MEL
MOLT-4 = system: MOLT-4
Malme-3M = system: Malme-3M
NCI-H226 = system: NCI-H226
NCI-H23 = system: NCI-H23
NCI-H522 = system: NCI-H522
OVCAR-3 = system: OVCAR-3
OVCAR-4 = system: OVCAR-4
OVCAR-5 = system: OVCAR-5
OVCAR-8 = system: OVCAR-8
RXF 393 = system: RXF 393
RXF 631 = system: RXF 631
SF-268 = system: SF-268
SF-295 = system: SF-295
SK-MEL-28 = system: SK-MEL-28
SK-MEL-2 = system: SK-MEL-2
SK-MEL-5 = system: SK-MEL-5
SK-OV-3 = system: SK-OV-3
SN12C = system: SN12C
SNB-19 = system: SNB-19
SNB-75 = system: SNB-75
SR = system: SR
SW-620 = system: SW-620
TK-10 = system: TK-10
U-251 = system: U-251
UACC-257 = system: UACC-257
UACC-62 = system: UACC-62
UO-31 = system: UO-31

Measured: GI50

Cc1cc([N+](=O)[O-])ccc1Nc1cccc(Cl)c1C
16.8 µM: HCT-15
inactive: 786-0 14 µM | A498 15.3 µM | A549 16.6 µM | ACHN 17.8 µM | CAKI-1 11.6 µM | CCRF-CEM 16.5 µM | COLO 205 17 µM | DLD-1 14.6 µM | DMS-114 13.5 µM | DMS-273 14.6 µM | EKVX 20 µM | HCC 2998 18.3 µM | HCT-116 16.1 µM | HL-60 18.2 µM | HOP-18 14 µM | HOP-62 14.7 µM | HT-29 17.6 µM | IGROV-1 13.6 µM | K562 11.3 µM | KM-20L2 14 µM | KM12 16 µM | LOX IMVI 17.3 µM | LXFL 529 14.4 µM | M14 15.5 µM | M19-MEL 16.5 µM | MOLT-4 14.8 µM | Malme-3M 15.2 µM | NCI-H226 18.9 µM | NCI-H23 17.1 µM | NCI-H522 16.1 µM | OVCAR-3 13.7 µM | OVCAR-4 16.5 µM | OVCAR-5 14.7 µM | OVCAR-8 15.1 µM | RXF 393 17.7 µM | RXF 631 16.2 µM | SF-268 17 µM | SF-295 18.9 µM | SK-MEL-28 16.7 µM | SK-MEL-2 14.9 µM | SK-MEL-5 15.6 µM | SK-OV-3 24.3 µM | SN12C 16.7 µM | SNB-19 19.1 µM | SNB-75 19.2 µM | SR 14.7 µM | SW-620 24.3 µM | TK-10 14.8 µM | U-251 16.3 µM | UACC-257 18 µM | UACC-62 12.6 µM | UO-31 11.7 µM

— ChEMBL document CHEMBL1201862, “PubChem BioAssay data set” (2004)
